PubChem BioAssay AID248 (DTP/NCI, 2004)
Inconclusive results and toxic doses are left out.

Test system: L1210 leukemia ip in BDF1 mice, survival T/C
Test: NCI In Vivo Anticancer Drug Screen. Data for tumor model L1210 Leukemia (intraperitoneal) in B6D2F1 (BDF1) mice
Conditions: endpoint: mean survival time, higher = longer survival
How it was run: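 Value reflects the ratio of survival in compound-treated mice to survival in vehicle-treated controls, with both groups carrying the same transplanted tumor.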

[1] = dose: 100.0 mg/kg/injection, schedule: Q01DX001 (ip), vehicle: Klucel (hydroxypropylcellulose) (HPC)
[2] = dose: 200.0 mg/kg/injection, schedule: Q01DX001 (ip), vehicle: Klucel (hydroxypropylcellulose) (HPC)
[3] = dose: 100.0 mg/kg/injection, schedule: Q04DX002 (ip), vehicle: Klucel (hydroxypropylcellulose) (HPC)
[4] = dose: 200.0 mg/kg/injection, schedule: Q04DX002 (ip), vehicle: Klucel (hydroxypropylcellulose) (HPC)
[5] = dose: 400.0 mg/kg/injection, schedule: Q04DX002 (ip), vehicle: Klucel (hydroxypropylcellulose) (HPC)
[6] = dose: 100.0 mg/kg/injection, schedule: Q01DX009 (ip), vehicle: saline with Tween-80
[7] = dose: 100.0 mg/kg/injection, schedule: Q04DX003 (ip), vehicle: Klucel (hydroxypropylcellulose) (HPC)
[8] = dose: 200.0 mg/kg/injection, schedule: Q01DX009 (ip), vehicle: saline with Tween-80
[9] = dose: 200.0 mg/kg/injection, schedule: Q04DX003 (ip), vehicle: Klucel (hydroxypropylcellulose) (HPC)
[10] = dose: 400.0 mg/kg/injection, schedule: Q01DX009 (ip), vehicle: saline with Tween-80
[11] = dose: 100.0 mg/kg/injection, schedule: Q04DX003 (ip), vehicle: saline with Tween-80
[12] = dose: 200.0 mg/kg/injection, schedule: Q04DX003 (ip), vehicle: saline with Tween-80

In the case of Cc1cccc(C)c1NC(=O)N(CCCl)N=O, the T/C (dose: 5.7 mg/kg/injection, schedule: Q01DX Z (oral), vehicle: carboxymethylcellulose (CMC)) is reported as 150 % of control, the T/C (dose: 13.0 mg/kg/injection, schedule: Q01DX Z (oral), vehicle: carboxymethylcellulose (CMC)) is reported as 206 % of control and the T/C (dose: 16.0 mg/kg/injection, schedule: Q01DX001 (ip), vehicle: carboxymethylcellulose (CMC)) is reported as 192 % of control. The T/C (dose: 20.0 mg/kg/injection, schedule: Q01DX Z (oral), vehicle: carboxymethylcellulose (CMC)) was 170 % of control, the T/C (dose: 31.0 mg/kg/injection, schedule: Q01DX001 (ip), vehicle: carboxymethylcellulose (CMC)) was 308 % of control and the T/C (dose: 62.0 mg/kg/injection, schedule: Q01DX001 (ip), vehicle: carboxymethylcellulose (CMC)) was 156 % of control. The T/C (dose: 125.0 mg/kg/injection, schedule: Q01DX001 (ip), vehicle: carboxymethylcellulose (CMC)) was 156 % of control and the T/C (dose: 187.0 mg/kg/injection, schedule: Q01DX001 (ip), vehicle: carboxymethylcellulose (CMC)) was 91 % of control.
For Nc1ccccc1NC(=O)C(F)(F)F, the T/C (dose: 50.0 mg/kg/injection, schedule: Q01DX001 (ip), vehicle: carboxymethylcellulose (CMC)) was 93 % of control, the T/C (dose: 100.0 mg/kg/injection, schedule: Q01DX001 (ip), vehicle: carboxymethylcellulose (CMC)) was 97 % of control and the T/C (dose: 200.0 mg/kg/injection, schedule: Q01DX001 (ip), vehicle: carboxymethylcellulose (CMC)) was 98 % of control. For the same compound, the T/C (dose: 400.0 mg/kg/injection, schedule: Q01DX001 (ip), vehicle: carboxymethylcellulose (CMC)) was 108 % of control.
For COc1cccc2c1C(=O)c1c(O)c3c(c(O)c1C2=O)CC(O)(/C(C)=N/NC(=O)c1ccccc1)CC3OC1CC(N)C(O)C(C)O1 (stereo unspecified), the T/C (dose: 200.0 mg/kg/injection, schedule: Q04DX003 (ip), vehicle: water) was 124 % of control.
For CN=C(NN(C)C)c1ccc(NC(=O)c2ccc(C(=O)Nc3ccc(C(=NC)NN(C)C)cc3)cc2)cc1, the T/C (dose: 2.5 mg/kg/injection, schedule: Q01DX Z (ip), vehicle: carboxymethylcellulose (CMC)) was 97 % of control, the T/C (dose: 5.0 mg/kg/injection, schedule: Q01DX Z (ip), vehicle: carboxymethylcellulose (CMC)) was 111 % of control and the T/C (dose: 25.0 mg/kg/injection, schedule: Q01DX Z (oral), vehicle: carboxymethylcellulose (CMC)) was 116 % of control. The T/C (dose: 50.0 mg/kg/injection, schedule: Q01DX Z (oral), vehicle: carboxymethylcellulose (CMC)) was 110 % of control, the T/C (dose: 100.0 mg/kg/injection, schedule: Q01DX Z (oral), vehicle: carboxymethylcellulose (CMC)) was 102 % of control and the T/C (dose: 200.0 mg/kg/injection, schedule: Q01DX Z (oral), vehicle: carboxymethylcellulose (CMC)) was 104 % of control.
In the case of Nc1nc[nH]c1-c1n[nH]c(=O)[nH]1, the T/C [1] is reported as 108 % of control and the T/C [2] is reported as 104 % of control.
N=Nc1c2ccccc2c2nc3c(N)[nH]nc(N)c3nc12 was tested, and the T/C [3] was 107 % of control, the T/C [4] was 103 % of control and the T/C [5] was 100 % of control.
CC1(C)N=C(N)Nc2nnc(-c3ccc(F)cc3)n21 was tested, and the T/C (dose: 100.0 mg/kg/injection, schedule: Q04DX003 (ip), vehicle: saline sonified) was 89 % of control, the T/C (dose: 200.0 mg/kg/injection, schedule: Q04DX003 (ip), vehicle: saline sonified) was 101 % of control and the T/C (dose: 400.0 mg/kg/injection, schedule: Q04DX003 (ip), vehicle: saline sonified) was 89 % of control.
In the case of O=C(O)c1cc(Br)cc(I)c1Cl, the T/C [3] is reported as 102 % of control and the T/C [4] is reported as 94 % of control.
CCOC(=O)CCCN1CCC=C(C#N)C1 was tested, and the T/C (dose: 75.0 mg/kg/injection, schedule: Q01DX001 (ip), vehicle: saline) was 102 % of control and the T/C (dose: 300.0 mg/kg/injection, schedule: Q01DX001 (ip), vehicle: saline) was 107 % of control.
In the case of CCCCCCCCCC(N)C(=O)O (stereo unspecified), the T/C (dose: 50.0 mg/kg/injection, schedule: Q04DX002 (ip), vehicle: gum acacia) is reported as 100 % of control, the T/C (dose: 100.0 mg/kg/injection, schedule: Q04DX002 (ip), vehicle: gum acacia) is reported as 98 % of control and the T/C (dose: 200.0 mg/kg/injection, schedule: Q04DX002 (ip), vehicle: gum acacia) is reported as 100 % of control.
CC(=O)CCCC(C)C1CCC2[C@H]3CC=C4C[C@H](O)CC[C@@]4(C)C3CC[C@@]12C (stereo partly specified) was tested, and the T/C (dose: 50.0 mg/kg/injection, schedule: Q01DX009 (ip), vehicle: Klucel (hydroxypropylcellulose) (HPC)) was 96 % of control, the T/C (dose: 100.0 mg/kg/injection, schedule: Q01DX009 (ip), vehicle: Klucel (hydroxypropylcellulose) (HPC)) was 100 % of control and the T/C (dose: 200.0 mg/kg/injection, schedule: Q01DX009 (ip), vehicle: Klucel (hydroxypropylcellulose) (HPC)) was 102 % of control.
In the case of Cc1ccc(NC(=O)c2ccc(Cl)cc2Cl)cc1C, the T/C [1] is reported as 90 % of control, the T/C [6] is reported as 106 % of control and the T/C [7] is reported as 108 % of control. The T/C [2] was 90 % of control, the T/C [8] was 97 % of control and the T/C [9] was 93 % of control. The T/C (dose: 400.0 mg/kg/injection, schedule: Q01DX001 (ip), vehicle: Klucel (hydroxypropylcellulose) (HPC)) was 92 % of control, the T/C [10] was 100 % of control and the T/C (dose: 400.0 mg/kg/injection, schedule: Q04DX003 (ip), vehicle: Klucel (hydroxypropylcellulose) (HPC)) was 94 % of control.
For Cc1cc[n+]2n1CC(O)C2 (stereo unspecified), the T/C (dose: 50.0 mg/kg/injection, schedule: Q01DX001 (ip), vehicle: saline) was 102 % of control, the T/C (dose: 100.0 mg/kg/injection, schedule: Q01DX001 (ip), vehicle: saline) was 100 % of control and the T/C (dose: 200.0 mg/kg/injection, schedule: Q01DX001 (ip), vehicle: saline) was 96 % of control. For the same compound, the T/C (dose: 400.0 mg/kg/injection, schedule: Q01DX001 (ip), vehicle: saline) was 102 % of control.
With CCO/C=C/C(=O)NC(=O)OCC the T/C [6] was 95 % of control, the T/C [11] was 97 % of control and the T/C [8] was 91 % of control. The T/C [12] was 100 % of control, the T/C [10] was 101 % of control and the T/C (dose: 400.0 mg/kg/injection, schedule: Q04DX003 (ip), vehicle: saline with Tween-80) was 94 % of control.
COC(=O)c1cccc(O)c1 was tested, and the T/C (dose: 100.0 mg/kg/injection, schedule: Q01DX001 (ip), vehicle: saline with Tween-80) was 94 % of control, the T/C (dose: 200.0 mg/kg/injection, schedule: Q01DX001 (ip), vehicle: saline with Tween-80) was 91 % of control and the T/C (dose: 400.0 mg/kg/injection, schedule: Q01DX001 (ip), vehicle: saline with Tween-80) was 98 % of control.
In the case of O=C(O)c1cc2ccccc2cc1Sc1ccccc1, the T/C [11] is reported as 103 % of control and the T/C [12] is reported as 102 % of control.
With COc1c(C)c2c(c(Br)c1N)COCO2 the T/C (dose: 50.0 mg/kg/injection, schedule: Q01DX001 (ip), vehicle: Klucel (hydroxypropylcellulose) (HPC)) was 94 % of control, the T/C [1] was 92 % of control and the T/C [7] was 95 % of control. For the same compound, the T/C [2] was 94 % of control and the T/C [9] was 97 % of control.
COc1ncnc2c1c(C#N)cn2C1OC(CO)C(O)C1O (stereo unspecified) was tested, and the T/C (dose: 6.25 mg/kg/injection, schedule: Q01DX009 (ip), vehicle: saline) was 124 % of control, the T/C (dose: 50.0 mg/kg/injection, schedule: Q01DX009 (ip), vehicle: saline) was 119 % of control and the T/C (dose: 100.0 mg/kg/injection, schedule: Q01DX009 (ip), vehicle: saline) was 169 % of control. The T/C (dose: 200.0 mg/kg/injection, schedule: Q01DX005 (ip), vehicle: saline) was 93 % of control.
In the case of CC(=O)SCN1C(=O)C2C3CCC(O3)C2C1=O (stereo unspecified), the T/C [3] is reported as 91 % of control, the T/C [4] is reported as 91 % of control and the T/C [5] is reported as 105 % of control.
In the case of O=S(c1ccccc1)c1ccccc1, the T/C (dose: 75.0 mg/kg/injection, schedule: Q01DX009 (ip), vehicle: Klucel (hydroxypropylcellulose) (HPC)) is reported as 98 % of control, the T/C [3] is reported as 102 % of control and the T/C (dose: 150.0 mg/kg/injection, schedule: Q01DX009 (ip), vehicle: Klucel (hydroxypropylcellulose) (HPC)) is reported as 102 % of control. For the same compound, the T/C [4] was 98 % of control, the T/C (dose: 300.0 mg/kg/injection, schedule: Q01DX009 (ip), vehicle: Klucel (hydroxypropylcellulose) (HPC)) was 95 % of control and the T/C [5] was 112 % of control.
With COC(=O)NS(=O)(=O)OC the T/C (dose: 100.0 mg/kg/injection, schedule: Q04DX002 (ip), vehicle: saline) was 103 % of control and the T/C (dose: 200.0 mg/kg/injection, schedule: Q04DX002 (ip), vehicle: saline) was 110 % of control.
